Assay results published in the kinase profiling compilation of Christmann-Franck et al. (2016).

Experiments:
Assay in all cases: radiometric filter-binding kinase assay, Kinase HotSpot
Settings in all cases: compound 0.5 µM; ATP 10 µM
CHUK (human) = CHUK (human) (UniProt O15111)
SRPK2 (human) = SRPK2 (human) (UniProt P78362)
HIPK3 (human) = HIPK3 (human) (UniProt Q9H422)
IKBKE (human) = IKBKE (human) (UniProt Q14164)
PRKCB2 (human) = PRKCB2 (human) (UniProt P05771)
NEK9 (human) = NEK9 (human) (UniProt Q8TD19)
EPHA3 (human) = EPHA3 (human) (UniProt P29320)
MAP4K5 (human) = MAP4K5 (human) (UniProt Q9Y4K4)
EPHA6 (human) = EPHA6 (human) (UniProt Q9UF33)
CSNK1D (human) = CSNK1D (human) (UniProt P48730)
TLK2 (human) = TLK2 (human) (UniProt Q86UE8)
MAPK11 (human) = MAPK11 (human) (UniProt Q15759)
IKBKB (human) = IKBKB (human) (UniProt O14920)
PTK6 (human) = PTK6 (human) (UniProt Q13882)
SYK (human) = SYK (human) (UniProt P43405)
PTK2B (human) = PTK2B (human) (UniProt Q14289)
MAP3K8 (human) = MAP3K8 (human) (UniProt P41279)
DAPK3 (human) = DAPK3 (human) (UniProt O43293)
CDK6 CCND3 (human) = CDK6 CCND3 (human) (UniProt P30281+Q00534)
STK24 (human) = STK24 (human) (UniProt Q9Y6E0)
RAF1 (human) = RAF1 (human) (UniProt P04049)
RPS6KA6 KD1 KD2 (human) = RPS6KA6 KD1 KD2 (human) (UniProt Q9UK32)
MAP3K7 TAB1 (human) = MAP3K7 TAB1 (human) (UniProt O43318+Q15750)
BRAF (human) = BRAF (human) (UniProt P15056)
PRKCH (human) = PRKCH (human) (UniProt P24723)
PAK1 (human) = PAK1 (human) (UniProt Q13153)
DMPK (human) = DMPK (human) (UniProt Q09013)
PRKACA (human) = PRKACA (human) (UniProt P17612)
ULK3 (human) = ULK3 (human) (UniProt Q6PHR2)
CDK1 CCNA2 (human) = CDK1 CCNA2 (human) (UniProt P06493+P20248)
MAPK10 (human) = MAPK10 (human) (UniProt P53779)
MAPK3 (human) = MAPK3 (human) (UniProt P27361)
MAPKAPK3 (human) = MAPKAPK3 (human) (UniProt Q16644)
WNK3 (human) = WNK3 (human) (UniProt Q9BYP7)
MAP4K4 (human) = MAP4K4 (human) (UniProt O95819)
CAMK1 (human) = CAMK1 (human) (UniProt Q14012)
NUAK2 (human) = NUAK2 (human) (UniProt Q9H093)
GSK3B (human) = GSK3B (human) (UniProt P49841)
CLK3 (human) = CLK3 (human) (UniProt P49761)
TGFBR2 (human) = TGFBR2 (human) (UniProt P37173)
STK38 (human) = STK38 (human) (UniProt Q15208)
PDPK1 (human) = PDPK1 (human) (UniProt O15530)

Sequence of IKBKE (human) (Q14164 whole entry, looked up): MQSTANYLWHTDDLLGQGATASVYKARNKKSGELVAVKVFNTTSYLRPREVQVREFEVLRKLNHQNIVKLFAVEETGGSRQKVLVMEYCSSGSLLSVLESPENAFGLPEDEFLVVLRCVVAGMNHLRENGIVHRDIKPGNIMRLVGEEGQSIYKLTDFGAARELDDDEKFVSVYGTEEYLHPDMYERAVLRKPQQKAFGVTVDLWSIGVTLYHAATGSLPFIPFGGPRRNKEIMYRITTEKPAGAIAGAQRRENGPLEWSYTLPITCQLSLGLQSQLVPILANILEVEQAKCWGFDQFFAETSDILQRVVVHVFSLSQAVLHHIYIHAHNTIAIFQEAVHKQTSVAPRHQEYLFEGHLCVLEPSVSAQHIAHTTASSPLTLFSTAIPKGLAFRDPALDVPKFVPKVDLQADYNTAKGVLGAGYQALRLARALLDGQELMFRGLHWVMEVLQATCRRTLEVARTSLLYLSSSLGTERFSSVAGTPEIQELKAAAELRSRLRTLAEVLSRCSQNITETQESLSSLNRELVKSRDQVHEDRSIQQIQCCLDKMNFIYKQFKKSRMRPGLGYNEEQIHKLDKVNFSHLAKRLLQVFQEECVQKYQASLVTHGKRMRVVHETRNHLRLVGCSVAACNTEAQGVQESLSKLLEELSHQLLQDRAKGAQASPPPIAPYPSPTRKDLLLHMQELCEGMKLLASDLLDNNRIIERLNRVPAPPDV
Sequence of MAP4K4 (human) (O95819 whole entry, looked up): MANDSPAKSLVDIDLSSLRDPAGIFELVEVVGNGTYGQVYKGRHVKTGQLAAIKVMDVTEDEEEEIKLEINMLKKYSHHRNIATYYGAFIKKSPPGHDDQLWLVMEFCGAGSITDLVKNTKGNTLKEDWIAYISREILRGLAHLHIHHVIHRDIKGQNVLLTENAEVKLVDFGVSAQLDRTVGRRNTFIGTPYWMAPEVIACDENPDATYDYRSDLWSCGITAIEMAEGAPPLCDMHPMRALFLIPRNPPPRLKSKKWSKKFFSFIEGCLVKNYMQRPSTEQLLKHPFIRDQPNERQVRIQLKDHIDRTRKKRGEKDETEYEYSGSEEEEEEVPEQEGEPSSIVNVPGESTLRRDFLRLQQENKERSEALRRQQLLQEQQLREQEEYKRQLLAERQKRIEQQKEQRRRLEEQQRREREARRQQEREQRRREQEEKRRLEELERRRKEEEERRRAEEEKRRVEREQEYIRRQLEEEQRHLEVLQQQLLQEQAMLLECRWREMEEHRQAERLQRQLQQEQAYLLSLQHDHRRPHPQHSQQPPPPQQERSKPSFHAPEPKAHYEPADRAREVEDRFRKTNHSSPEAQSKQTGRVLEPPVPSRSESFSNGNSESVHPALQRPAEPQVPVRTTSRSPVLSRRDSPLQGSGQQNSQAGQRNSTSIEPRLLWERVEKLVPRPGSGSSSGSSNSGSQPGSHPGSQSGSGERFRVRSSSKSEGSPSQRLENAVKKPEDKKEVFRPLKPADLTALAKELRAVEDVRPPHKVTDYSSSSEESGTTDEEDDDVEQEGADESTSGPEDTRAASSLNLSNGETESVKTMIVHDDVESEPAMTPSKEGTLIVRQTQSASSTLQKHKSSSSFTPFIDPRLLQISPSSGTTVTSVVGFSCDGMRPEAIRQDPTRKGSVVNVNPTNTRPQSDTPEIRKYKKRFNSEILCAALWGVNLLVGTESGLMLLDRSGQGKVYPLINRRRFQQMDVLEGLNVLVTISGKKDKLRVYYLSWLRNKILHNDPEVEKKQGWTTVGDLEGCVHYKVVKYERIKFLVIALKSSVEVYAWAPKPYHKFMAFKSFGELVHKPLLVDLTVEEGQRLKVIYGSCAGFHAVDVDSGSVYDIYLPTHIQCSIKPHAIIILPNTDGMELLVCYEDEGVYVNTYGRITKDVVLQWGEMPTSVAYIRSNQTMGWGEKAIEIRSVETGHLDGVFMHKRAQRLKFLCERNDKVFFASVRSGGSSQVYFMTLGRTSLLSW
Sequence of ULK3 (human) (Q6PHR2 whole entry, looked up): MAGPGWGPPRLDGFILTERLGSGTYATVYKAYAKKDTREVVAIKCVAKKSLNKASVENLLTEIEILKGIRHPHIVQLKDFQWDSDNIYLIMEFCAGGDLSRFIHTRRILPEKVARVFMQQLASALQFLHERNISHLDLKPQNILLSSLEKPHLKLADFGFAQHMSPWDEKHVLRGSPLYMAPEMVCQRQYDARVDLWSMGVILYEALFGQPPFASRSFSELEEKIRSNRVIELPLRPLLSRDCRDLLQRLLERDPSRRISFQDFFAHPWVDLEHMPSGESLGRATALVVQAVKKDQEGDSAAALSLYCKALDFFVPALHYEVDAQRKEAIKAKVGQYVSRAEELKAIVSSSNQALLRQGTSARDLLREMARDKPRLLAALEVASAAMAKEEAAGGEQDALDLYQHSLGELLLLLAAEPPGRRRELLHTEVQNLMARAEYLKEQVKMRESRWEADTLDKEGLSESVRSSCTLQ
Sequence of TGFBR2 (human) (P37173 whole entry, looked up): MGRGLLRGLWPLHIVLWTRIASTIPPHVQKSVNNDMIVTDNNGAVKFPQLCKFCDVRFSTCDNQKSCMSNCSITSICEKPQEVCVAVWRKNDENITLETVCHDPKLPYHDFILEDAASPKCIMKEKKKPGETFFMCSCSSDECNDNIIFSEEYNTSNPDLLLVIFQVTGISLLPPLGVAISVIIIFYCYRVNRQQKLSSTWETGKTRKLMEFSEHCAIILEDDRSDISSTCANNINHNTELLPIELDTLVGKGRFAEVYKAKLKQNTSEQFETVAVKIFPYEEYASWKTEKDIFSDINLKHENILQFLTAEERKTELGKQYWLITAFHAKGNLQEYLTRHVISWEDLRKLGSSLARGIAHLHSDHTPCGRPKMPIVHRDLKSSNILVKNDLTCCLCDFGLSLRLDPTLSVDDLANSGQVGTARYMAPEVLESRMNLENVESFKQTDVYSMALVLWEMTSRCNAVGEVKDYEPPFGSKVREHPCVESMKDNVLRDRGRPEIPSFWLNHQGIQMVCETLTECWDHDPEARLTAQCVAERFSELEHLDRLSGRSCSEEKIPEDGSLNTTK
Sequence of PTK6 (human) (Q13882 whole entry, looked up): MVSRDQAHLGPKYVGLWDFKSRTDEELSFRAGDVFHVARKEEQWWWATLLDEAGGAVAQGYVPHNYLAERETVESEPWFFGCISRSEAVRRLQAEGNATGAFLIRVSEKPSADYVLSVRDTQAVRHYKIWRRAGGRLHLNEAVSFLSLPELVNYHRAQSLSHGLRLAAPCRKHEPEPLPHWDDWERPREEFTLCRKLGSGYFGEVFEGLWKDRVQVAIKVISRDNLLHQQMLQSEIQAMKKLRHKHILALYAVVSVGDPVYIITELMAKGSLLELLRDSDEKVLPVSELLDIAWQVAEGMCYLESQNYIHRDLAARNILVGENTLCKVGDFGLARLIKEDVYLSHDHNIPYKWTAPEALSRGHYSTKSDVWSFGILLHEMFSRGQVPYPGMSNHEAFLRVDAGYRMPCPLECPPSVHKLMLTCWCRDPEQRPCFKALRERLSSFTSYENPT
Sequence of PTK2B (human) (Q14289 whole entry, looked up): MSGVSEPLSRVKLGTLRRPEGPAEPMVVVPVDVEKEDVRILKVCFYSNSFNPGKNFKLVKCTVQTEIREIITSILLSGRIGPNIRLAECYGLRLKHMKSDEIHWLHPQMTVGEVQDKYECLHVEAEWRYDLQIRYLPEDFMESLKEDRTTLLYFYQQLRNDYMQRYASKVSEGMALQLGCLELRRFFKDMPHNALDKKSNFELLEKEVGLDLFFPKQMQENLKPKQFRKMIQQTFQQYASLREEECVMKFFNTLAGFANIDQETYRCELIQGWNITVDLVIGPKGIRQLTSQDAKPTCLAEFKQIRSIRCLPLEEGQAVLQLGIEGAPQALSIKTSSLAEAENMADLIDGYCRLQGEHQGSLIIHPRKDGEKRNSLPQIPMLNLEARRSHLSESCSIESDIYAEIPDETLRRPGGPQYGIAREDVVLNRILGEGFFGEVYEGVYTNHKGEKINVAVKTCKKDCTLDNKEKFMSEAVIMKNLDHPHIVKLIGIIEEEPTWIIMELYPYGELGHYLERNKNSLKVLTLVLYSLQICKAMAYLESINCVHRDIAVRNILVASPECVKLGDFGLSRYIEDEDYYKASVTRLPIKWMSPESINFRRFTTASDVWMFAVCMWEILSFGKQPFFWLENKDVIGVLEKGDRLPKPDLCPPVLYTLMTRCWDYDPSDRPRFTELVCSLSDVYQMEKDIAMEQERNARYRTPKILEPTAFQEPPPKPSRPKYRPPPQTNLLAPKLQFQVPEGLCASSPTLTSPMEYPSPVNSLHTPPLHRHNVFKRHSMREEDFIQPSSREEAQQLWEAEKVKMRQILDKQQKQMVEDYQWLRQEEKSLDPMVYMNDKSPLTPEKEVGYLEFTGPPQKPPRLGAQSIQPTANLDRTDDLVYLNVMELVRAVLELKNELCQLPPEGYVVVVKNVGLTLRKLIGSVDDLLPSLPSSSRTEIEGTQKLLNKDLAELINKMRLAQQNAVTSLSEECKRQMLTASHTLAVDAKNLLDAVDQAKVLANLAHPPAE
Sequence of STK38 (human) (Q15208 whole entry, looked up): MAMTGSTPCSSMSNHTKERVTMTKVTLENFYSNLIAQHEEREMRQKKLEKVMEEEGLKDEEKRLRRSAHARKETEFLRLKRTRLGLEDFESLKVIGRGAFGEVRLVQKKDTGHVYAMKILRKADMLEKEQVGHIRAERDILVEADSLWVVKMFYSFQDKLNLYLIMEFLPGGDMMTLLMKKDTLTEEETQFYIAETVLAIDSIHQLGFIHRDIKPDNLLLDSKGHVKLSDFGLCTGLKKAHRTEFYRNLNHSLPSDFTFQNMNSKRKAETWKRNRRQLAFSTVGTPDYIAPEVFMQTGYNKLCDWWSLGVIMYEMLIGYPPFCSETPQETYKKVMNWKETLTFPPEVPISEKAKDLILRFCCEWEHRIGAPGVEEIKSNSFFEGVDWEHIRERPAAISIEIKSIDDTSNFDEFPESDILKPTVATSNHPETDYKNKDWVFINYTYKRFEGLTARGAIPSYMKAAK

Structure (SMILES): CN(C)S(=O)(=O)c1ccc2c(c1)/C(=C/c1cc3c([nH]1)CCCC3)C(=O)N2
- residual activity (CHUK (human)): 115%
- residual activity (SRPK2 (human)): 50.3%
- residual activity (HIPK3 (human)): 107%
- residual activity (IKBKE (human)): 87.9%
- residual activity (PRKCB2 (human)): 92%
- residual activity (NEK9 (human)): 93.2%
- residual activity (EPHA3 (human)): 98.6%
- residual activity (MAP4K5 (human)): 3.08%
- residual activity (EPHA6 (human)): 61.9%
- residual activity (CSNK1D (human)): 99.7%
- residual activity (TLK2 (human)): 102%
- residual activity (MAPK11 (human)): 108%
- residual activity (IKBKB (human)): 107%
- residual activity (PTK6 (human)): 56.3%
- residual activity (SYK (human)): 77.7%
- residual activity (PTK2B (human)): 52.6%
- residual activity (MAP3K8 (human)): 94.6%
- residual activity (DAPK3 (human)): 94.4%
- residual activity (CDK6 CCND3 (human)): 84.2%
- residual activity (STK24 (human)): 47.7%
- residual activity (RAF1 (human)): 97.7%
- residual activity (RPS6KA6 KD1 KD2 (human)): 67.4%
- residual activity (MAP3K7 TAB1 (human)): 89%
- residual activity (BRAF (human)): 89.2%
- residual activity (PRKCH (human)): 78.5%
- residual activity (PAK1 (human)): 96.1%
- residual activity (DMPK (human)): 102%
- residual activity (PRKACA (human)): 106%
- residual activity (ULK3 (human)): 26.3%
- residual activity (CDK1 CCNA2 (human)): 70.6%
- residual activity (MAPK10 (human)): 105%
- residual activity (MAPK3 (human)): 102%
- residual activity (MAPKAPK3 (human)): 100%
- residual activity (WNK3 (human)): 96.5%
- residual activity (MAP4K4 (human)): 46.1%
- residual activity (CAMK1 (human)): 107%
- residual activity (NUAK2 (human)): 95.1%
- residual activity (GSK3B (human)): 95.6%
- residual activity (CLK3 (human)): 92.9%
- residual activity (TGFBR2 (human)): 129%
- residual activity (STK38 (human)): 94.6%

Structure (SMILES): Cc1cccc(-c2nc(C(C)(C)C)[nH]c2-c2ccc3c(c2)OCO3)n1
- residual activity (PDPK1 (human)): 89.8%
- residual activity (CHUK (human)): 108%
- residual activity (SRPK2 (human)): 95.8%
- residual activity (IKBKE (human)): 91.8%
- residual activity (PRKCB2 (human)): 99.9%
- residual activity (NEK9 (human)): 95.6%
- residual activity (EPHA3 (human)): 101%
- residual activity (MAP4K5 (human)): 99.2%
- residual activity (EPHA6 (human)): 92.7%
- residual activity (CSNK1D (human)): 63.4%
- residual activity (TLK2 (human)): 103%
- residual activity (MAPK11 (human)): 93%
- residual activity (IKBKB (human)): 105%
- residual activity (PTK6 (human)): 87.7%
- residual activity (SYK (human)): 87%
- residual activity (PTK2B (human)): 91.3%
- residual activity (MAP3K8 (human)): 94.5%
- residual activity (DAPK3 (human)): 97%
- residual activity (CDK6 CCND3 (human)): 98%
- residual activity (STK24 (human)): 100%
- residual activity (RAF1 (human)): 86.2%
- residual activity (RPS6KA6 KD1 KD2 (human)): 107%
- residual activity (MAP3K7 TAB1 (human)): 96.3%
- residual activity (BRAF (human)): 111%
- residual activity (PRKCH (human)): 104%
- residual activity (PAK1 (human)): 96.3%
- residual activity (DMPK (human)): 102%
- residual activity (PRKACA (human)): 102%
- residual activity (ULK3 (human)): 80.4%
- residual activity (CDK1 CCNA2 (human)): 96.7%
- residual activity (MAPK10 (human)): 96%
- residual activity (MAPK3 (human)): 111%
- residual activity (MAPKAPK3 (human)): 94.1%
- residual activity (WNK3 (human)): 94.1%
- residual activity (MAP4K4 (human)): 86.9%
- residual activity (CAMK1 (human)): 99.8%
- residual activity (NUAK2 (human)): 138%
- residual activity (GSK3B (human)): 96.8%
- residual activity (CLK3 (human)): 104%
- residual activity (TGFBR2 (human)): 105%
- residual activity (STK38 (human)): 91.7%

Structure (SMILES): COc1cc(Nc2c(C#N)cnc3cc(OCCCN4CCN(C)CC4)c(OC)cc23)c(Cl)cc1Cl
- residual activity (PDPK1 (human)): 89.8%
- residual activity (CHUK (human)): 98.1%
- residual activity (SRPK2 (human)): 101%
- residual activity (HIPK3 (human)): 93.5%
- residual activity (IKBKE (human)): 75.4%
- residual activity (PRKCB2 (human)): 88.4%
- residual activity (NEK9 (human)): 94%
- residual activity (EPHA3 (human)): 31.7%
- residual activity (MAP4K5 (human)): 1.72%
- residual activity (EPHA6 (human)): 4.38%
- residual activity (CSNK1D (human)): 10.9%
- residual activity (TLK2 (human)): 92.2%
- residual activity (MAPK11 (human)): 101%
- residual activity (IKBKB (human)): 95.4%
- residual activity (PTK6 (human)): 93.1%
- residual activity (SYK (human)): 21.1%
- residual activity (PTK2B (human)): 32.6%
- residual activity (MAP3K8 (human)): 101%
- residual activity (DAPK3 (human)): 107%
- residual activity (CDK6 CCND3 (human)): 122%
- residual activity (STK24 (human)): 11%
- residual activity (RAF1 (human)): 105%
- residual activity (RPS6KA6 KD1 KD2 (human)): 62%
- residual activity (MAP3K7 TAB1 (human)): 28.3%
- residual activity (BRAF (human)): 91.7%
- residual activity (PRKCH (human)): 102%
- residual activity (PAK1 (human)): 11.7%
- residual activity (PRKACA (human)): 73.8%
- residual activity (ULK3 (human)): 100%
- residual activity (CDK1 CCNA2 (human)): 96.9%
- residual activity (MAPK3 (human)): 98.9%
- residual activity (MAPKAPK3 (human)): 98.2%
- residual activity (WNK3 (human)): 91.8%
- residual activity (MAP4K4 (human)): 1.03%
- residual activity (CAMK1 (human)): 68.9%
- residual activity (NUAK2 (human)): 59.5%
- residual activity (GSK3B (human)): 99.9%
- residual activity (CLK3 (human)): 94.9%
- residual activity (TGFBR2 (human)): 95.7%
- residual activity (STK38 (human)): 85.1%
